Several values for one entry are separate records, joined by “and”; a condition that tells them apart may be missing. Equal entries are not always repeated. Where two headings read alike, the source gives them in different places.
Tests used:
[1] = system: E. coli BW25-113 (wild type); assay: Antibacterial growth inhibition assay in MHB, wild type; format: cell-based; conditions: 24 h; for inhibition at 100 µM: Escherichia coli, read-out: Growth Inhibition (%)
Experimental: (§1) The potential of hit compounds to interfere with bacterial growth was evaluated in E. coli BW25-113 (wild type) and tolC-deficient strain E. coli JW5503 [34] (obtained from the NBRP-E. coli collection at the National Institute of Genetics, Mishima, Japan). The effect of the compounds on wild-type strain E. coli BW25-113 and the isogenic clpP-deficient E. coli JW0427-1 [34] (coli genetic stock center, New Haven, CT, USA) were measured in the presence of the efflux pump inhibitor Phe-Arg β-naphthylamide dihydrochloride (#P4157, Sigma-Aldrich, USA) at 25 μM. Single colonies of the bacterial strains from Mueller Hinton Agar culture were used to inoculate 5 mL of saline solution. The suspension was transferred into fresh, sterile Mueller Hinton broth (MHB) medium, resulting in a final concentration of 10^6 CFU/mL. Growth assays were carried out in 96-well, flat-bottom, sterile clear plates (#167008, Nunc, VWR, Radnor, PA, USA) and compounds were tested at 50 and 100 μM concentration (2% DMSO). Absorbance at 600 nm was measured using the Multiskan GO or Varioskan LUX plate reader (Thermo Fisher Scientific, Vantaa, Finland) for 24 h at hourly intervals. Between measurements, plates were incubated in a shaking incubator (500 rpm) at 37 °C.

[2] = system: E. coli JW0427 (ΔclpP); assay: Growth delay under nitric oxide stress (DPTA NONOate) in M9 medium, clpP-deficient strain; format: cell-based; conditions: clpP-deficient E. coli, DPTA NONOate, compared with cells without compound
Experimental: (§2) Assessment of E. coli growth delay in presence of nitric oxide stress was carried out following our recently published protocol, which is an adaptation of the method reported by Robinson and Brynildsen to a 96-well plate format. Fresh MHB medium was inoculated with isolated colonies of E. coli BW25-113 or E. coli JW0427-1, grown on Luria Agar, and left overnight in a shaking incubator (250 rpm) at 37 °C. On the following day, the overnight culture was used to inoculate fresh M9 medium (supplemented with 10 mM glucose) 1:100, and was grown until OD600 ~0.3. Afterwards, the culture was transferred into 96-well, flat-bottom, sterile clear plates (#167008, Nunc, VWR). Bacterial OD600 was adjusted to 0.1 with M9 medium (supplemented with 10 mM glucose). Test compounds were transferred into the 96-well plates, followed by addition of the bacterial culture. Nitric oxide stress was induced by addition of 2 mM DPTA NONOate ((Z)-1-[N-(3-aminopropyl)-N-(3-ammoniopropyl)amino]diazen-1-ium-1,2-diolate, Cayman Chemical, Ann Arbor, MI, USA), dissolved in NaOH (final concentration 0.14 mM). Absorbance measurements (600 nm) were done with a Multiskan GO or Varioskan LUX plate reader (Thermo Fisher Scientific, Finland) at hourly intervals for 24 h. Between measurements, plates were incubated in a shaking incubator (500 rpm) at 37 °C.

[3] = target: T1, bovine α-chymotrypsin (Bos taurus, UniProt P00766); assay: Serine protease selectivity assay with bovine α-chymotrypsin (Suc-LY-AMC); format: biochemical; conditions: 200 μM compound concentration
T1 construct: purchased Sigma-Aldrich C4129
Experimental: Compound selectivity was assessed using bovine α-chymotrypsin (#C4129, Sigma-Aldrich, St. Louis, MO, USA) at 200 µM. The assay was carried out as described above, except that 1 ng/μL of α-chymotrypsin and 100 μM of Suc-LY-AMC substrate were dissolved in a buffer containing 150 mM NaCl, 10 mM CaCl2, 50 mM Tris-HCl, and 0.05% Brij® 35.

[4] = system: E. coli BW25-113 (wild type); assay: Growth delay under nitric oxide stress (DPTA NONOate) in M9 medium, wild type; format: cell-based; conditions: WT E. coli, M9 minimal medium
Experimental: as §2

[5] = system: MCF-7 cells; assay: in vitro; format: cell-based
Experimental: (§3) Potential cell toxicity of the tested compounds was evaluated by ATP quantification using the CellTiter-Glo® luminescent cell viability assay (Promega, Madison, WI, USA). […] After incubation, 20 µL of CellTiter-Glo® reagent were added per well and incubated at room temperature in the dark for another 30 min. Luminescence was quantified by an EnVision multi-plate reader (PerkinElmer, Rodgau, Germany).

[6] = system: A549 cells; assay: in vitro; format: cell-based
Experimental: as §3

[7] = in vitro; format: cell-based; conditions: human, 48 h incubation, 1:3 dilutions starting from 200 μM
Experimental: as §3

[8] = system: HTC-116 cells; assay: in vitro; format: cell-based
Experimental: as §3

[9] = target: T2, E. coli ClpP (Escherichia coli, UniProt P0A6G7); assay: Fluorescence-based E. coli ClpP proteolytic activity assay (Suc-LY-AMC), primary screen and dose-response; format: biochemical; conditions: for E. coli ClpP inhibition [%] in the primary screen: 200 µM
T2 construct: His-tag; made in house; host or cells: E. coli SG1146a
T2 sequence (P0A6G7 15-207): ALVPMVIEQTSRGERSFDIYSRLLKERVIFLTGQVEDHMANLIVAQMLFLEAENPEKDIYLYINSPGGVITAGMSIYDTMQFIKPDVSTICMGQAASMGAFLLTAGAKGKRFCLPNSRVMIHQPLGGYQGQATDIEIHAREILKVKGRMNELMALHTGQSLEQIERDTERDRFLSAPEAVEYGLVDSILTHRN
Experimental: Briefly, 25 ng/μL of E. coli ClpP dissolved in a buffer containing 100 mM NaCl, 100 mM 4-(2-hydroxyethyl)-1-piperazineethanesulfonic acid (HEPES) pH 7.5, and 0.05% Brij® 35 were transferred into each well. Test compound addition (final concentration 200 µM) was carried out using an Echo® 550 liquid handling system (Labcyte, Sunnyvale, CA, USA). […] Changes in fluorescence (excitation 350 nm, emission 435 nm) were monitored at 1 min intervals at 30 °C over 1 h using an Infinite M1000 microplate reader (Tecan).
The assay was carried out as described above with increasing concentrations of test compounds. Dose-response experiments were done at least 3 times independently, each in technical triplicates.
Calculation of Z prime (Z’) for HTS assay performance was done according to Zhang et al.. Plates were considered for further analyses if Z’ > 0.6 [26].

[10] = target: T2, E. coli ClpP; assay: Surface plasmon resonance binding to immobilized ClpP; conditions: 80 µM, injected over 7 min, 30 min dissociation
Experimental: E. coli ClpP (80 μg/mL) protein was immobilized, using amine coupling (SPR-AS-HCA-03, Bruker Daltonics Inc., Billerica, MA, USA), onto the surface of the sensor chip of a SIERRA SPR-16 instrument (Bruker Daltonics GmbH, Bremen, Germany). ClpP protein was dissolved in acetate at pH 4. The running buffer contained 150 mM NaCl, 10 mM Hepes, 3 mM EDTA, and 0.05% (v/v) Tween-20. The flow rate for protein immobilization was 10 μL/min. Binding experiments were carried out using running buffer with the addition of 0.8% (v/v) of DMSO and 80 µM test substance (flow rate of 20 μL/min for 7 min and up to 30 min of dissociation time). […] SPR data were analyzed using the Analyzer 3 software (Bruker Daltonics GmbH), which includes algorithms for subtracting reference signals and accounting for non-specific interactions between the solvent and the sensor chip surface.

[11] = system: E. coli JW0427 (ΔclpP); assay: Antibacterial growth inhibition assay in MHB, clpP-deficient strain; format: cell-based; conditions: Escherichia coli, 24 h, read-out: Growth Inhibition (%)
Experimental: as §1

[12] = system: E. coli JW5503 (ΔtolC); assay: Antibacterial growth inhibition assay in MHB, efflux pump-defective strain; format: cell-based; conditions: Escherichia coli, 24 h, read-out: Growth Inhibition (%)
Experimental: as §1

[13] = E. coli WT, without PAβN, 100 μM, 37 °C, MHB
[14] = both tested concentrations (50 and 100 μM)
[15] = A549 cells, read-out: Cytotoxicity A549 IC50
[16] = HTC-116 cells, read-out: Cytotoxicity HTC-116 IC50
[17] = MCF-7 cells, read-out: Cytotoxicity MCF-7 IC50
[18] = read-out: E. coli ClpP inhibition [%] in the primary screen, primary screen, 200 µM
[19] = read-out: Inhibition (%) at 200 μM E. coli ClpP, 200 μM compound concentration

With `O=c1oc(Cl)c(Cl)c2ccccc12` [3,4-DIC, 3,4-dichloroisocoumarin] the “Growth Inhibition (%)” value [1, 13] was “did not show any intrinsic antimicrobial activities”, the “Growth delay in presence of nitric oxide stress” value [2] was “did not show any significant effect” and the “Inhibition (%) at 200 μM α-Chymotrypsin” value [3] was “completely inhibited”. The inhibition at 200 µM [3] was 101%, the “Bacterial growth in absence of NO• stress” value [4, 14] was “small growth delay” and the “Cytotoxicity MCF-7 Ratio (IC50 cytotoxicity/IC50 ClpP)” value (“Cytotoxicity MCF-7 Ratio” for short) ([5]; MCF-7) was 1.85. The “Cytotoxicity A549 Ratio (IC50 cytotoxicity/IC50 ClpP)” value (“Cytotoxicity A549 Ratio” for short) ([6]; A549) was 9.12, the IC50 at 48 h [7, 15] was 44.7 µM and the IC50 at 48 h [7, 16] was 45.1 µM. For the same compound, the IC50 at 48 h [7, 17] was 9.06 µM, the “Cytotoxicity HTC-116 Ratio (IC50 cytotoxicity/IC50 ClpP)” value (“Cytotoxicity HTC-116 Ratio” for short) ([8]; HTC-116) was 9.2 and the IC50 [9] was 4.9 µM. The “E. coli ClpP inhibition [%] in the primary screen” value (shortened to “E. coli ClpP inhibition [%]”) [9] was over 90%, the inhibition at 200 µM [9, 18] was 98.9% and the inhibition at 200 µM [9, 19] was 98.9%. For the same compound, the “Covalent / irreversible binding to ClpP by SPR” value [10] was “covalent binding”.

In the case of `CC(C)C[C@H](NC(=O)[C@H](Cc1ccccc1)NC(=O)c1cnccn1)B(O)O` [Bortezomib, bortezomib], the inhibition at 100 µM [1] is reported as 55%, the inhibition at 100 µM [11] is reported as 100% and the “Inhibition (%) at 200 μM α-Chymotrypsin” value [3] is reported as “completely inhibited”. The inhibition at 200 µM [3] was 97.8%, the “Bacterial growth in absence of NO• stress” value [4, 14] was “did not show any effect” and the “Cytotoxicity MCF-7 Ratio” value [5] was 1. The “Cytotoxicity A549 Ratio” value [6] was 0.005, the “Cytotoxicity HTC-116 Ratio” value [8] was 0.005 and the IC50 [9] was 0.04 µM. For the same compound, the “E. coli ClpP inhibition [%]” value [9] was over 90%, the inhibition at 200 µM [9, 18] was 100% and the inhibition at 200 µM [9, 19] was 100%. The “Covalent / irreversible binding to ClpP by SPR” value [10] was “covalent binding” and the “SPR signal (resonance units, RU)” value [10] was “low change of absolute resonance unit”.

In the case of `CO[C@@]1(NC(=O)CSCC#N)C(=O)N2C(C(=O)O)=C(CSc3nnnn3C)CS[C@@H]21` [Cefmetazole, cefmetazole], the inhibition at 100 µM [1, 13] is reported as 100%, the inhibition at 100 µM [11] is reported as 100% and the “Inhibition (%) at 200 μM α-Chymotrypsin” value [3] is reported as “no inhibition”. For the same compound, the inhibition at 200 µM [3] was 0%, the inhibition at 100 µM [12] was 100% and the “Cytotoxicity A549 Ratio” value ([6]; A549) was 73.53. It also gave an IC50 at 48 h [7, 15] of 250 µM, an IC50 at 48 h [7, 16] of 5430 µM and an IC50 at 48 h [7, 17] of 74.1 µM. The “Cytotoxicity HTC-116 Ratio” value ([8]; HTC-116) was 1597.06, the IC50 [9] was 3.4 µM and the “E. coli ClpP inhibition [%]” value [9] was over 90%. For the same compound, the inhibition at 200 µM [9, 18] was 94.5% and the inhibition at 200 µM [9, 19] was 94.5%.

In the case of `N.N.[Cl-].[Cl][Pt+].c1ccncc1` [cDPCP], the “Growth delay in presence of nitric oxide stress” value [2] is reported as “did not show any significant effect”, the “Inhibition (%) at 200 μM α-Chymotrypsin” value [3] is reported as 84.7% and the “Bacterial growth in absence of NO• stress” value ([4]; 100 μM compound) is reported as “clearly influenced”. For the same compound, the IC50 ([5]; 48 h incubation, 1:3 dilutions starting from 200 μM, read-out: Cytotoxicity MCF-7 IC50) was 3.27 µM, the “Cytotoxicity MCF-7 Ratio” value ([5]; MCF-7) was 0.13 and the IC50 ([6]; 48 h incubation, 1:3 dilutions starting from 200 μM, read-out: Cytotoxicity A549 IC50) was 131 µM. The “Cytotoxicity A549 Ratio” value ([6]; A549) was 5.33, the IC50 ([8]; 48 h incubation, 1:3 dilutions starting from 200 μM, read-out: Cytotoxicity HTC-116 IC50) was 283 µM and the “Inhibition (%) at 200 μM E. coli ClpP” value ([9]; 200 μM compound concentration) was 91.2%. For the same compound, the IC50 ([9]; dose-response, 1:3 dilution starting from 200 μM, substrate Suc-LY-AMC, read-out: E. coli ClpP IC50) was 24.6 µM, the “E. coli ClpP inhibition [%]” value [9] was 91.16% and > 90% and the “SPR signal (resonance units, RU)” value [10] was “high RU values”.
